Reference: US20150119327A1, “DRUG SCREENING PLATFORM FOR RETT SYNDROME” (THE REGENTS OF THE UNIVERSITY OF CALIFORNIA, priority 2012, published 2015)

What was measured:
TRPC6 = target: T1, TRPC6 (Homo sapiens, UniProt Q9Y210); conditions: cited from earlier work
T1 sequence (Q9Y210 1-931): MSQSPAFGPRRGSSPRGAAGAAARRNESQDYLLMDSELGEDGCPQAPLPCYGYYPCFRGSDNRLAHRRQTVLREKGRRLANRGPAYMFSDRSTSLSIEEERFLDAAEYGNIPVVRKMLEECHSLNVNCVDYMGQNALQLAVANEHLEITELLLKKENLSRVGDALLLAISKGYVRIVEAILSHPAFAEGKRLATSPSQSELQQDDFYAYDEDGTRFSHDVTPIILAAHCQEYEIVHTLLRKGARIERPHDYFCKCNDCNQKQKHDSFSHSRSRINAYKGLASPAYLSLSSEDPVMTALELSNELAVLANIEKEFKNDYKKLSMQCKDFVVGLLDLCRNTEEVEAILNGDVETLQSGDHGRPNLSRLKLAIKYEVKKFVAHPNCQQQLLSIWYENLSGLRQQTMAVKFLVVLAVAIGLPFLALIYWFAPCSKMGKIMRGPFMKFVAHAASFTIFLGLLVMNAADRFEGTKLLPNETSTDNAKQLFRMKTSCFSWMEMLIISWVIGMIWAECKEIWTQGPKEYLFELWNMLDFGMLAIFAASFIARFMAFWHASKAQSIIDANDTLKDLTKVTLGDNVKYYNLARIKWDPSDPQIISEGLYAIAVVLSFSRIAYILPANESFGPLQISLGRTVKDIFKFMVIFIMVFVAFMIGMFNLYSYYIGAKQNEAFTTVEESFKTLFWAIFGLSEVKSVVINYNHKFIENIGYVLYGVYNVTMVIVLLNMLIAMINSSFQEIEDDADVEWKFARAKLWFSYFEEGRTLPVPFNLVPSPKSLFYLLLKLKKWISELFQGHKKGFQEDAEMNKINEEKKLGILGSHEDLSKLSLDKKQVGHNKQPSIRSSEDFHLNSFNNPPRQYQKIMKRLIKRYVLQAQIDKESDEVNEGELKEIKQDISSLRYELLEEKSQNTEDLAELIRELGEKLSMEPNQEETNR

Na^+ current = assay type: cell-based, human
TRPC6-mutant neurons = experiment: VGLUT1 puncta / glutamatergic synapse number in TRPC6-mutant neurons (rescue); assay type: cell-based, human; conditions: 10 ηg/mL for two weeks
Method: Neuronal tracing was performed on neurons for which that the shortest dendrite was at least three-times longer than the cell soma diameter, using a semi-automatic ImageJ plug-in (NeuroJ). Spines and VGLUT1 puncta were quantified after three-dimensional reconstruction of z-stack confocal images. Only neurons with spines were scored. Pictures were taken randomly for each individual and from two different experiments, using at least two different clones. Quantification was done blindly to the genotype of the cells. All experiments were performed with independent clones and different controls. For the rescue experiments, 10 ηg/mL of IGF1 (Peprotech) was added to neuronal cultures for 2 weeks.

human neurons [1] = experiment: Synapse quantification by Odyssey in-cell western in 96- or 24-well plates; assay type: cell-based; conditions: preliminary data
From the text: Fibroblasts from patients are reprogrammed to a pluripotent state and further differentiated into neuro progenitor cells (NPCs). These NPCs can be expanded in appropriated culture conditions and, under the right signals, induced to differentiated into postmitotic neurons (see schematic; FIG. 11). Several adjustments were done on the neuronal differentiation protocol, reducing by half the time needed to generate neurons from NPCs. Such adjustments include specific factors and cell manipulations at different stages of the protocol. At this stage, disease neurons can reveal a phenotype that is related to the mutations on the MeCP2 gene. We focused on synapse quantification. Instead of manual synapse counting, we are using an Odyssey machine that can estimate the number of synapses by detecting specific wavelengths in a 96- or 24-well plates (see FIG. 11). […] Alternatively, we are using specific synaptic tools to visualize synaptogeneses in real time that could be detected by any time-lapse fluorescence microscope.

RTT-like symptoms = conditions: mouse model; cited from earlier work
human neurons [2] = conditions: cited from earlier work
K^+ current = experiment: Whole-cell patch clamp recording of K+ current in iPSC-derived neuron; assay type: cell-based, human; conditions: 20 mM
Method: Whole-cell patch clamp recordings were performed from cells cultured in the absence of astrocytes after approximately 6 weeks of differentiation. Before recordings, the growth media was removed and replaced with a bath solution comprised of (in mM): 130 NaCl, 3 KCl, 1 CaCl2, 1 MgCl2, HEPES, and 10 glucose (pH 7.4) at room temperature (22-24° C.). Electrodes for whole cell recording were pulled on a Flaming/Brown micropipette puller (Model P-87, Sutter Instrument, Novato, Calif.) from filamented borosilicate capillary glass (1.2 mm OD, 0.69 mm ID, World Precision Instruments, Sarasota, Fla.). The electrodes were fire-polished, and resistances were typically 2-5 MΩ for voltage-clamp experiments and 7-9 MΩ for current-clamp experiments. The pipette solution contained (in mM): 138 KCl, 0.2 CaCl2, 1 MgCl2, 10 HEPES (Na^+ salt), and 10 EGTA, (pH 7.4). The osmolarity of all solutions was adjusted to 290 mOsM. All chemicals were purchased from Sigma-Aldrich (St. Louis, Mo.) except MgCl2 (J.T. Baker, Phillipsburg, N.J.). Current traces in voltage clamp were leak-subtracted. Liquid junction potentials were nulled for each individual cell with the Axopatch 1C amplifier (Molecular Devises, Sunnyvale, Calif.).

## O=C(O)c1ccccc1Nc1cccc(C(F)(F)F)c1 [FFA, flufenamic acid]
TRPC6
  currents through TRPC6 channel: increases the amplitude

## NC1=N[C@H](O)[C@H]2[C@H]3O[C@]4(O)O[C@@H]([C@@H](O)[C@@]2(N1)[C@@H]4O)[C@]3(O)CO [Tetrodotoxin (TTX), Tetrodotoxin]
Na^+ current
  Na^+ current: blocked

## IGF-1: Insulin-like growth factor 1 (IGF-1), also referred to as somatomedin C
TRPC6-mutant neurons
  glutamatergic synapse number: increase
Human neurons [1]
  synapse number estimate (Odyssey), response to drug: small alterations
RTT-like symptoms
  RTT-like symptoms: reversal
Human neurons [2]
  RTT-like symptoms: reversal
  synapse number: increase

## CC(C)=CCC[C@]1(C)[C@@H](CC=C(C)C)C[C@@]2(CC=C(C)C)C(=O)[C@]1(C(=O)C(C)C)C(=O)C(CC=C(C)C)=C2O [Hyperforin, hyperforin]
TRPC6
  TRPC6 activation: specifically activates

## CC[N+](CC)(CC)CC [tetraethalammonium (TEA), tetraethalammonium]
K^+ current
  K^+ current: blocked
